Laboratory results from ChEMBL document CHEMBL1811905, “Ligand-based discovery of novel trypanosomicidal drug-like compounds: in silico identification and experimental support” (Eur J Med Chem, 2011).

Key:
Trypanosoma cruzi [1] = test: Antitrypanosomal activity against epimastigote forms of Trypanosoma cruzi CL-B5 transfected with Escherichia coli beta-galactosidase gene LacZ at 1 ug/ml after 72 hrs by chlorophenol red-Beta-D-galactopyranoside-based assay; type: functional
J774 [2] = test: Cytotoxicity against mouse J774 cells assessed as reduction in cell viability at 1 ug/ml after 24 hrs by resazurin-based colorimetric assay; conditions: j774, 24 h
Trypanosoma cruzi [3] = test: Antitrypanosomal activity against epimastigote forms of Trypanosoma cruzi CL-B5 transfected with Escherichia coli LacZ gene at 100 ug/ml after 72 hrs by chlorophenol red-Beta-D-galactopyranoside-based assay; type: functional
Trypanosoma cruzi [4] = test: Antitrypanosomal activity against epimastigote forms of Trypanosoma cruzi CL-B5 transfected with Escherichia coli beta-galactosidase gene LacZ at 10 ug/ml after 72 hrs by chlorophenol red-Beta-D-galactopyranoside-based assay; type: functional
J774 [5] = test: Cytotoxicity against mouse J774 cells assessed as reduction in cell viability at 100 ug/ml after 24 hrs by resazurin-based colorimetric assay; conditions: j774, 24 h
J774 [6] = test: Cytotoxicity against mouse J774 cells assessed as reduction in cell viability at 10 ug/ml after 24 hrs by resazurin-based colorimetric assay; conditions: j774, 24 h
Trypanosoma cruzi [7] = test: Antitrypanosomal activity against amastigote forms of Trypanosoma cruzi CL-B5 expressing Escherichia coli LacZ gene infected in NCTC929 fibroblasts at 10 ug/ml after 7 days by chlorophenol red-Beta-D-galactopyranoside-based assay; type: functional
Trypanosoma cruzi [8] = test: Antitrypanosomal activity against amastigote forms of Trypanosoma cruzi CL-B5 expressing Escherichia coli LacZ gene infected in NCTC929 fibroblasts at 100 ug/ml after 7 days by chlorophenol red-Beta-D-galactopyranoside-based assay; type: functional
Trypanosoma cruzi [9] = test: Antitrypanosomal activity against amastigote forms of Trypanosoma cruzi CL-B5 expressing Escherichia coli LacZ gene infected in NCTC929 fibroblasts at 1 ug/ml after 7 days by chlorophenol red-Beta-D-galactopyranoside-based assay; type: functional

| Structure (SMILES) | Activity (Trypanosoma cruzi [1]) [%] | Activity (J774 [2]) [%] | Activity (Trypanosoma cruzi [3]) [%] | Activity (Trypanosoma cruzi [4]) [%] | Activity (J774 [5]) [%] | Activity (J774 [6]) [%] | Activity (Trypanosoma cruzi [7]) [%] | Activity (Trypanosoma cruzi [8]) [%] | Activity (Trypanosoma cruzi [9]) [%] |
| --- | --- | --- | --- | --- | --- | --- | --- | --- | --- |
| O=C1CN(CCCCCCl)c2ccc([N+](=O)[O-])cc2N1 | 27.7 | 0 | 47.5 | 42.9 | 64.5 | 32.3 | – | – | – |
| O=C1C[N+]2(CCCCC2)c2ccc([N+](=O)[O-])cc2N1.[Cl-] | 27.2 | – | 26.2 | 34 | – | – | – | – | – |
| CC1CS(=O)(=O)CCN1/N=C/c1ccc([N+](=O)[O-])o1 (stereo not drawn) [NIFURTIMOX] | 75.5 | 0 | 98.7 | 90 | 25.9 | 0.6 | 94.44 | 100 | 88.14 |
| CN1CC(=O)Nc2cc([N+](=O)[O-])ccc21 | 17.8 | – | 34.5 | 30.1 | – | – | – | – | – |
| CCOCc1ccccc1CCN1CC(=O)Nc2cc([N+](=O)[O-])ccc21 | 28.1 | – | 100 | 74.4 | 95.9 | 48.5 | – | – | – |
| CN1C(=O)CN(CCCCCCCl)c2ccc([N+](=O)[O-])cc21 | 25.7 | – | 100 | 51.2 | 80.7 | 63.9 | – | – | – |
| O=C1CN(CCc2ccccc2CCl)c2ccc([N+](=O)[O-])cc2N1 | 43.8 | 4.7 | 100 | 96.2 | 76.6 | 75.8 | – | – | – |
| O=C1CN(CCCCCl)c2ccc([N+](=O)[O-])cc2N1 | 21 | 0 | 70.5 | 40.8 | 29 | 7.4 | – | – | – |
| CN1C(=O)CN(CCc2ccccc2CCl)c2ccc([N+](=O)[O-])cc21 | 65.5 | 0 | 100 | 100 | 14.5 | 0 | 56.21 | 100 | 35.39 |
| CN1C(=O)CN(CCCCCl)c2ccc([N+](=O)[O-])cc21 | 19.9 | – | 99 | 69.1 | 96.8 | 0 | 39.33 | – | – |
